Laboratory results reported in EP3046573B1, “AMYLIN ANALOGUES” (Zealand Pharma A/S, priority 2013, dated 2015).
Numbered stars: 1 amine (or outer) side, 2 acyl side, 3 side chain; on linkers, the order of the positions; unused ones are H or OH. Bridge positions count the residues as written; N and C are the ends. Square brackets hold non-standard residues; d marks the D form. Peptide text beside a SMILES is read from it. * marks the point of attachment. C20 diacid = O=C(O)CCCCCCCCCCCCCCCCCCC(=O)*; γGlu = O=C(O)[C@H](CCC(=O)[*:2])N[*:1]; Hyp = O=C(O)[C@@H]1C[C@@H](O)CN1; NMeI = CC[C@H](C)[C@H](NC)C(=O)O; Sar = CNCC(=O)O

Tests used:
[1] = biological target: T1, human calcitonin receptor (hCTR2) (Homo sapiens, UniProt P30988); assay: hCTR2 assay: induction of cAMP (AlphaScreen cAMP Assay kit) in COS7 cells expressing hCTR2; type: cell-based; conditions: cAMP induction in COS7 cells expressing hCTR2; average of a minimum of 3 determinations; read-out: hCTR2 EC50
T1 construct: expressed in transfected cells
T1 sequence (P30988 25-474): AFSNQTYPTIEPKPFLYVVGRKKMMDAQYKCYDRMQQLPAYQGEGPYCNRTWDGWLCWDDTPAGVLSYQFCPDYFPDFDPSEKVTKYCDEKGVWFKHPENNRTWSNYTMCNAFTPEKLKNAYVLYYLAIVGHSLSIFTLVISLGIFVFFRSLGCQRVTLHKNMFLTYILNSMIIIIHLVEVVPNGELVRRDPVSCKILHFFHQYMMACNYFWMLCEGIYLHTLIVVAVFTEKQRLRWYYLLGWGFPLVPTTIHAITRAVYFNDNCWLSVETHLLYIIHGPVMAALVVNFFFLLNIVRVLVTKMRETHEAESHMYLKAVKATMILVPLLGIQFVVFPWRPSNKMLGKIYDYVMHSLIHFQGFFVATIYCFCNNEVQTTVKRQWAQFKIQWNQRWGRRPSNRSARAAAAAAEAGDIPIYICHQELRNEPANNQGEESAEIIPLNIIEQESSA
Procedure, shortened: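 Peptide-induced cAMP in hCTR2-expressing COS7 cells, 15 min at 37° C with phosphodiesterase inhibitor IBMX (100 µM), detected by AlphaScreen; potency from 4PL curves.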

[2] = biological target: T2, human amylin receptor 3 (hAMYR3) consisting of hCTR2 co-expressed with human Receptor Activity Modifying Protein 3 (hRAMP3) (Homo sapiens, UniProt O60896+P30988); assay: hAMYR3 assay: induction of cAMP (AlphaScreen cAMP Assay kit) in COS7 cells expressing hAMYR3; type: cell-based; conditions: cAMP induction in COS7 cells expressing hAMYR3; average of a minimum of 3 determinations; read-out: hAMY R3 EC50
T2 construct: expressed in transfected cells
T2 sequence (P30988 25-474): T1 sequence (P30988 25-474)
T2 sequence (O60896 24-148 partner): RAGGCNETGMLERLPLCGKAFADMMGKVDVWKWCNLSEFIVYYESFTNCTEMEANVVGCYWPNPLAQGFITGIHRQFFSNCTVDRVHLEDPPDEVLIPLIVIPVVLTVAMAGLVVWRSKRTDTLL
Procedure, shortened: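 cAMP accumulation read by AlphaScreen in lysates of RAMP-naive COS7 cells stably transfected with hCTR2 plus hRAMP3. Cells exposed to peptide dilutions for 15 min, 37° C, with 100 µM IBMX; 4PL fitting gave EC50 and efficacy relative to pramlintide.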

EC50 [1] [nM] | EC50 [2] [nM] | Structure (SMILES)
0.1 | 0.27 | CC[C@H](C)[C@@H](C(=O)N[C@@H](CC(C)C)C(=O)N[C@@H](CO)C(=O)N[C@@H](CO)C(=O)N[C@H](C(=O)N[C@@H](CCC(=O)O)C(=O)N[C@H](C(=O)NCC(=O)N[C@@H](CO)C(=O)N[C@@H](CCC(=O)O)C(=O)N[C@H](C(=O)N1C[C@H](O)C[C@H]1C(N)=O)[C@@H](C)O)C(C)C)[C@@H](C)O)N(C)C(=O)[C@H](C)NC(=O)CN(C)C(=O)[C@H](Cc1ccccc1)NC(=O)[C@H](CO)NC(=O)[C@H](CO)NC(=O)[C@H](CCCNC(=N)N)NC(=O)[C@H](Cc1c[nH]cn1)NC(=O)[C@H](CC(C)C)NC(=O)[C@H](Cc1ccccc1)NC(=O)[C@H](CCC(=O)O)NC(=O)[C@H](C)NC(=O)[C@H](CC(C)C)NC(=O)[C@H](CCCNC(=N)N)NC(=O)[C@H](CCC(=O)O)NC(=O)[C@@H](NC(=O)[C@H](C)NC(=O)[C@@H]1CSSC[C@H](NC(=O)[C@H](Cc2c[nH]c3ccccc23)NC(=O)CC[C@H](NC(=O)CCCCCCCCCCCCCCCCCCC(=O)O)C(=O)O)C(=O)NCC(=O)N[C@@H]([C@@H](C)O)C(=O)N[C@@H](C)C(=O)N[C@@H]([C@@H](C)O)C(=O)N1)[C@@H](C)O [Compound 164, [19CD]-isoGlu-WC()GTATC()ATERLAEFLHRSSF-Gly(Me)-A-Ile(Me)-LSSTEVGSET-Hyp-NH2] ({C20 diacid-γGlu}-WCGTATCATERLAEFLHRSSF[Sar]A[NMeI]LSSTEVGSET[Hyp]-NH2; disulfide 2-7)
3.5 | 0.64 | CC[C@H](C)[C@@H](C(=O)N[C@@H](CC(C)C)C(=O)N[C@@H](CO)C(=O)N[C@@H](CO)C(=O)N[C@H](C(=O)N[C@@H](CCC(=O)O)C(=O)N[C@H](C(=O)NCC(=O)N[C@@H](CO)C(=O)N[C@@H](CCC(=O)O)C(=O)N[C@H](C(=O)N1C[C@H](O)C[C@H]1C(N)=O)[C@@H](C)O)C(C)C)[C@@H](C)O)N(C)C(=O)CN(C)C(=O)[C@H](Cc1ccccc1)NC(=O)[C@H](CO)NC(=O)[C@H](CO)NC(=O)[C@H](CO)NC(=O)[C@H](CO)NC(=O)[C@H](CCCNC(=N)N)NC(=O)[C@H](Cc1c[nH]cn1)NC(=O)[C@H](CC(C)C)NC(=O)[C@H](Cc1ccccc1)NC(=O)[C@H](CCC(=O)O)NC(=O)[C@H](C)NC(=O)[C@H](CC(C)C)NC(=O)[C@H](CCCNC(=N)N)NC(=O)[C@H](CCC(=O)O)NC(=O)[C@@H](NC(=O)[C@H](C)NC(=O)[C@@H]1CSSC[C@H](NC(=O)[C@H](CCCCN)NC(=O)[C@H](CCCCN)NC(=O)CC[C@H](NC(=O)CCCCCCCCCCCCCCCCCCC(=O)O)C(=O)O)C(=O)N[C@@H](CCC(=O)O)C(=O)N[C@@H]([C@@H](C)O)C(=O)N[C@@H](C)C(=O)N[C@@H]([C@@H](C)O)C(=O)N1)[C@@H](C)O [Compound 169, [19CD]-isoGlu-KKC()ETATC()ATERLAEFLHRSSSSF-Gly(Me)-Ile(Me)-LSSTEVGSET-Hyp-NH2] ({C20 diacid-γGlu}-KKCETATCATERLAEFLHRSSSSF[Sar][NMeI]LSSTEVGSET[Hyp]-NH2; disulfide 3-8)
